In this test the target is T1, Sirt6 (Homo sapiens, UniProt Q8N6T7).
T1 construct: purchased CycLex CY-1156V2
The experiment in a line: Measurement of Sirt6 Activity (CycLex Sirt6 Deacetylase Fluorometric Assay Kit). In kind it is biochemical. Particulars: compound at 10 μM, fluorescence relative to the group without compound treatment (positive control group). Summed up: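 Recombinant Sirt6 with fluoro-labelled acetyl-lysine peptide, NAD and lysylendopeptidase developer, compound added from 10× stock in PBS; 1 h at room temperature. Fluorescence read at ex 490/em 530 nm; activation expressed as fluorescence ratio relative to enzyme without compound.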

SMILES strings stand for the structures.

T1 sequence (Q8N6T7 whole entry): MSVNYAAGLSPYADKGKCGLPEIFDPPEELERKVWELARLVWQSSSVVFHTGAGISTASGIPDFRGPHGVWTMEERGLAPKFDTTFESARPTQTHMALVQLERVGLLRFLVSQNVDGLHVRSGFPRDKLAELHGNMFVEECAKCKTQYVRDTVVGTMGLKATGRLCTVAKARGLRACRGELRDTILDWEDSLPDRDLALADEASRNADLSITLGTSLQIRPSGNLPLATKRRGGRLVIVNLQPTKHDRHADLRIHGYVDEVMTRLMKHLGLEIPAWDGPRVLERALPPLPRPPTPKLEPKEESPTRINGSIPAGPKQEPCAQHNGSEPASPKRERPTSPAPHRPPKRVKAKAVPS

As to `O=C(O)Cc1cccc(-c2nn(-c3ccc(F)cc3F)c(=O)c3ccccc23)c1` [Example 199, 2-(3-(3-(2,4-Difluorophenyl)-4-oxo-3,4-dihydrophthalazin-1-yl)phenyl)acetic Acid], the “Sirt6 Activity (% activity, 10 μM)” value was 149.41 % activity.
On to `CC(C)(C#N)c1cccc(-c2nn(-c3ccc(F)cc3F)c(=O)c3ccccc23)c1` [Example 168, 2-(3-(3-(2,4-Difluorophenyl)-4-oxo-3,4-dihydrophthalazin-1-yl)phenyl)-2-methylpropanenitrile], for which the “Sirt6 Activity (% activity, 10 μM)” value is listed as 155.7 % activity.
On to `CNC(=O)C(C)(C)c1cccc(-c2nn(C3CCCCC3)c(=O)c3ccccc23)c1` [Example 164, 2-(3-(3-Cyclohexyl-4-oxo-3,4-dihydrophthalazin-1-yl)phenyl)-N,2-dimethylpropanamide], for which the “Sirt6 Activity (% activity, 10 μM)” value is given as 285.5 % activity.
Consider `CS(=O)(=O)c1cccc(-c2nn(-c3ccc(F)cc3F)c(=O)c3ccc(F)cc23)c1` [Example 119, 2-(2,4-Difluorophenyl)-6-fluoro-4-(3-(methylsulfonyl)phenyl)phthalazin-1(2H)-one], for which the “Sirt6 Activity (% activity, 10 μM)” value is 166 % activity.
Regarding `CC(C)/[N+]([O-])=C\c1ccc(-c2nn(-c3ccc(F)cc3)c(=O)c3ccccc23)c(F)c1` [Example 39, (E)-1-(3-Fluoro-4-(3-(4-fluorophenyl)-4-oxo-3,4-dihydrophthalazin-1-yl)phenyl)-N-isopropylmethanimine Oxide], the “Sirt6 Activity (% activity, 10 μM)” value is 106 % activity.
Take `CCS(=O)(=O)c1cccc(-c2nn(-c3ccccc3F)c(=O)c3ccccc23)c1` [Example 98, 4-(3-(Ethylsulfonyl)phenyl)-2-(2-fluorophenyl)phthalazin-1(2H)-one]: the “Sirt6 Activity (% activity, 10 μM)” value is reported as 264 % activity.
Turning to `CC(C)(C(=O)O)c1cccc(-c2nn(-c3ccc(F)cc3F)c(=O)c3ccccc23)c1` [Example 166, 2-(3-(3-(2,4-Difluorophenyl)-4-oxo-3,4-dihydrophthalazin-1-yl)phenyl)-2-methylpropanoic Acid], the “Sirt6 Activity (% activity, 10 μM)” value is on record as 239.2 % activity.
As for `CC(C)(C(=O)NCCO)c1cccc(-c2nn(-c3ccc(F)cc3F)c(=O)c3ccccc23)c1` [Example 186, 2-(3-(3-(2,4-Difluorophenyl)-4-oxo-3,4-dihydrophthalazin-1-yl)phenyl)-N-(2-hydroxyethyl)-2-methyl Propanamide], the “Sirt6 Activity (% activity, 10 μM)” value is reported as 305.80 % activity.
As for `O=C(O)C1(C2CCCN(c3nn(-c4ccc(F)cc4F)c(=O)c4ccccc34)C2)CC1` (stereo not drawn) [Example 212, 1-(1-(3-(2,4-Difluorophenyl)-4-oxo-3,4-dihydrophthalazin-1-yl)piperidin-3-yl)cyclopropan-1-carboxylic Acid], the “Sirt6 Activity (% activity, 10 μM)” value (10 µM) was 170.10 % activity.
For `CC(C)/[N+]([O-])=C/c1cccc(-c2nn(-c3ccc(F)cc3)c(=O)c3ccccc23)c1` [Example 37, (Z)-1-(3-(3-(4-Fluorophenyl)-4-oxo-3,4-dihydrophthalazin-1-yl)phenyl)-N-isopropyl methanimine Oxide], the “Sirt6 Activity (% activity, 10 μM)” value (10 µM) was determined as 126 % activity.
Consider `CNS(=O)(=O)c1cccc(-c2nn(-c3ccc(F)cc3F)c(=O)c3ccccc23)c1` [Example 91, 3-(3-(2,4-Difluorophenyl)-4-oxo-3,4-dihydrophthalazin-1-yl)-N-methylbenzene Sulfonamide], for which the “Sirt6 Activity (% activity, 10 μM)” value is given as 272 % activity.
On the same count and under the same terms, the value for `CN1CCN(c2nn(-c3ccc(F)cc3F)c(=O)c3ccccc23)CC1C(C)(C)C(=O)O` (stereo not drawn) [Example 220, 2-(4-(3-(2,4-Difluorophenyl)-4-oxo-3,4-dihydrophthalazin-1-yl)-1-methylpiperazin-2-yl)-2-methylpropanoic Acid] was 125.80 % activity.
The same measure, in the same setting: next, `O=C(O)C1(c2cccc(-c3nn(-c4ccc(F)cc4F)c(=O)c4ccccc34)c2)CC1` [Example 183, 1-(3-(3-(2,4-Difluorophenyl)-4-oxo-3,4-dihydrophthalazin-1-yl)phenyl)cyclopropan-1-carboxylic Acid]: 194.70 % activity; `Cl.NC1CCCN(c2nn(-c3ccc(F)cc3)c(=O)c3ccccc23)C1` (stereo not drawn) [Example 134, 4-(3-Aminopiperidin-1-yl)-2-(4-fluorophenyl)phthalazin-1(2H)-one-hydrochloride]: 167.53 % activity.
For `O=C(O)C1(C2CCCN(c3nn(-c4ccc(F)cc4F)c(=O)c4ccccc34)C2)CC1` (stereo not drawn) [Example 213-1, 1-(1-(3-(2,4-Difluorophenyl)-4-oxo-3,4-dihydrophthalazin-1-yl)piperidin-3-yl)cyclopropan-1-carboxylic Acid], the “Sirt6 Activity (% activity, 10 μM)” value (10 µM) came out at 168.10 % activity.
Consider `O=C(NOC1CCCCO1)c1cccc(-c2nn(-c3ccc(F)cc3)c(=O)c3ccccc23)c1` (stereo not drawn) [Example 79, 3-(3-(4-Fluorophenyl)-4-oxo-3,4-dihydrophthalazin-1-yl)-N-((tetrahydro-2H-pyran-2-yl)oxy)benzamide], for which the “Sirt6 Activity (% activity, 10 μM)” value was 167 % activity.
`CN(C)S(=O)(=O)Nc1cc(-c2nn(-c3ccccc3)c(=O)c3ccccc23)ccc1Cl` [Example 19, N-(3-(3-(Phenyl)-4-oxo-3,4-dihydrophthalazin-1-yl)-6-chlorophenyl)dimethyl Sulfamoylamide]: the “Sirt6 Activity (% activity, 10 μM)” value amounted to 120 % activity.
As to `O=c1c2ccccc2c(N2CCCCC(O)C2)nn1-c1ccc(F)cc1F` (stereo not drawn) [Example 190, 2-(2,4-Difluorophenyl)-4-(3-hydroxyazepan-1-yl)phthalazin-1(2H)-one], the “Sirt6 Activity (% activity, 10 μM)” value was found to be 332.60 % activity.
Take `O=c1c2ccccc2c(-c2cccc(S(=O)(=O)NCCO)c2)nn1-c1ccc(F)cc1F` [Example 127, 3-(3-(2,4-Difluorophenyl)-4-oxo-3,4-dihydrophthalazin-1-yl)-N-(2-hydroxyethyl)benzene Sulfonamide]: the “Sirt6 Activity (% activity, 10 μM)” value stood at 321 % activity.
Regarding `Cl.N[C@@H]1CCCCN(c2nn(-c3ccc(F)cc3)c(=O)c3ccccc23)C1` [Example 162, (R)-4-(3-Aminoazepan-1-yl)-2-(4-fluorophenyl)phthalazin-1(2H)-one-hydrochloride], the “Sirt6 Activity (% activity, 10 μM)” value is on record as 205.5 % activity.
Regarding `CC(C)(C)/[N+]([O-])=C/c1cc(-c2nn(-c3ccc(F)cc3)c(=O)c3ccccc23)ccc1F` [Example 53, (Z)—N-tert-Butyl-1-(2-fluoro-5-(3-(4-fluorophenyl)-4-oxo-3,4-dihydrophthalazin-1-yl)phenyl) Methanimine Oxide], the “Sirt6 Activity (% activity, 10 μM)” value was 172 % activity.
On the same count and under the same terms, next, `CCS(=O)(=O)Nc1cccc(-c2nn(-c3ccc(C(F)(F)F)cc3)c(=O)c3ccccc23)c1` [Example 3, N-(3-(4-Oxo-3-(4-(trifluoromethyl)phenyl)-3,4-dihydrophthalazin-1-yl)phenyl)ethanesulfonamide]: 104 % activity; `CC(C)(C)/[N+]([O-])=C/c1ccc(F)c(-c2nn(-c3ccc(F)cc3)c(=O)c3ccccc23)c1` [Example 57, (Z)—N-tert-Butyl-1-(4-fluoro-3-(3-(4-fluorophenyl)-4-oxo-3,4-dihydrophthalazin-1-yl)phenyl) Methanimine Oxide]: 149 % activity; `O=c1c2ccccc2c(-c2cccnc2)nn1-c1ccc(F)cc1F` [Example 115, 2-(2,4-Difluorophenyl)-4-(pyridin-3-yl)phthalazin-1(2H)-one]: 405 % activity.

For the origin of these results see patent publication US20220235011A1, “PHTHALAZINONE COMPOUNDS AND USE THEREOF” (ST PHARM CO., LTD., priority 2019, published 2022).
